Format in all cases: cell-based, human
The test system of one assay is MOLT-4. The assay can be described thus: NCI-60 growth inhibition, MOLT-4. The text has this:
(§1) The anticancer effects of compounds 1a-1b against 60 human cancer cell lines (the Developmental Therapeutics Program of NCI) were studied. The cell lines were derived from different cancer types including leukemia, non-small-cell lung cancer, colon cancer, CNS cancer, melanoma, ovarian cancer, renal cancer, prostate cancer, and breast cancer (Table 1; the assay protocol can be found at: https://dtp.cancer.gov/default.htm). Compound 1a caused over 50% growth inhibition for most tested cell lines. […] Without wishing to be bound by any particular theory, it is believed that the differences in the anticancer effects between compounds 1a and 1b may be due to the more favorable cell membrane permeability of the boronic ester 1a.

For another assay, the system named is EKVX. Kind of assay: NCI-60 growth inhibition, EKVX. Particulars: Non-Small Cell lung Cancer EKVX, 48 h.
Text: as §1

Another assay relates to NCI-H23. The assay can be described thus: NCI-60 growth inhibition, NCI-H23.
Text: as §1

The test system of another assay is NCI-H322M. Kind of assay: NCI-60 growth inhibition, NCI-H322M. Particulars: Non-Small Cell lung Cancer NCI-H322M, 48 h.
Text: as §1

For the next assay, the system named is KM12. The assay can be described thus: NCI-60 growth inhibition, KM12.
Text: as §1

The test system of the next assay is SF-539. The assay can be described thus: NCI-60 growth inhibition, SF-539.
Text: as §1

The next assay deals with SNB-75. The assay can be described thus: NCI-60 growth inhibition, SNB-75.
Text: as §1

In another assay the test system is MALME-3M. The assay can be described thus: NCI-60 growth inhibition, MALME-3M. The conditions noted are these: Melanoma MALME-3M, 48 h.
Text: as §1

A further assay deals with UACC-257. The assay can be described thus: NCI-60 growth inhibition, UACC-257.
Text: as §1

In another assay the test system is UACC-62. Kind of assay: NCI-60 growth inhibition, UACC-62.
Text: as §1

For another assay, the system named is NCI/ADR-RES. The assay can be described thus: NCI-60 growth inhibition, NCI/ADR-RES. The conditions noted are these: Ovarian Cancer NCI/ADR-RES, 48 h.
Text: as §1

For a further assay, the system named is SK-OV-3. The assay can be described thus: NCI-60 growth inhibition, SK-OV-3.
Text: as §1

Another assay has as its system ACHN. Kind of assay: NCI-60 growth inhibition, ACHN. Particulars: Renal Cancer ACHN, 48 h.
Text: as §1

The next assay relates to RXF 393. Kind of assay: NCI-60 growth inhibition, RXF 393.
Text: as §1

A further assay deals with MDA-MB-468. The assay can be described thus: NCI-60 growth inhibition, MDA-MB-468.
Text: as §1

In the next assay the test system is γH2AX. Kind of assay: γH2AX immunofluorescence assay in MCF7 cells. The conditions noted are these: 48 h. As to the method:
(§2) FIGS. 4A and 4B illustrate the effect of compounds 1a-1b in apoptosis. FIG. 4A: immunofluorescence of DNA cleavage protein γH2Ax was enhanced by using 5-FU and prodrugs 1a-1b. FIG. 4B: immunoblot analysis of MCF-7 cells treated with 5-FU, prodrugs 1a-1b for apoptosis markers PARP1 and Caspase 3. The cells were treated for 48 h with the indicated concentrations of compounds.
Immunohistochemistry Analysis. MCF7 cells were seeded on poly-D-lysine coated slides. Compounds were incubated with cells for 48 h. Following treatment, cells were washed once in PBS and fixed in 10% formalin for 20 min at room temperature. Methanol was used to permeabilize the cells for 10 min and PBS wash was carried out. Bovine serum albumin was used for 1 h blocking and primary antibodies for γH2AX (SCBT, #sc-517348) was incubated with the cells overnight. Fluorescent secondary antibodies were incubated with cells along with DAPI. Cells were washed trice with PBS and the slides were mounted prior to confocal imaging.
(§3) To understand the mechanism of action of prodrugs 1a-1b, the impact of the treatment of compounds 1a-1b on the γH2AX formation in MCF7 cells were determined using immunofluorescence assay (FIG. 4A). […] The effects of prodrugs 1a-1b on the PARP1 and caspase 3 cleavage in MCF7 cells were also determined using Western blots assays (FIG. 4B). […] Treatment of 5-FU and compounds 1a-1b increased the levels of cleavage of PARP1 and caspase 3 in MCF7 cells, as compared with that in the vehicle-treated controls. Therefore, prodrugs 1a-1b, similar to 5-FU, can induce MCF7 cell apoptosis, which might contribute to their pharmacological actions.

A further assay concerns caspase 3. Kind of assay: Western blot of caspase 3 in MCF7 cells. Particulars: 48 h; for expression level of caspase 3: compared to vehicle-treated cells; for level of cleavage of caspase 3: compared to vehicle-treated controls. The procedure:
as §2
Western Blot Analysis. Treated cells were washed once with PBS and lysed with RIPA lysis buffer (Santa Cruz Biotechnology, SCBT, #24948) supplemented with sodium orthovanadate, PMSF, protease and phosphatase inhibitor cocktails (Sigma Aldrich). Cell lysates were centrifuge for 15 min at 14,000×g and the supernatant was used for immunoblotting. Protein concentration was normalized for the samples and resolved on a 10-13% SDS-PAGE gel. Following transfer to nitrocellulose membrane, specific mouse primary antibodies from SCBT (PARP1 #sc-8007, caspase 3 #sc-7272) and Cell Signaling (cleaved PARP1 #9541, cleaved caspase-3 #9664) were added and incubated overnight. Secondary antibodies corresponding to the host of the primary antibodies was further incubated with the membrane and washed three times to remove excess antibodies. Odyssey Fc Imaging System (LI-COR, Lincoln, Nebr.) was used to quantify the chemiluminescent of the proteins.
as §3
(In general: Immunoblotting shows a protein as a band on a membrane.)

Take `O=c1[nH]c(=O)n(Cc2ccc(B(O)O)cc2)cc1F` [Compound 1b, (4-((5-Fluoro-2,4-dioxo-3,4-dihydropyrimidin-I(2H)-yl)methyl)phenyl)boronic acid]: the “Growth Inhibition (%)” value in the assay on MOLT-4 (Leukemia MOLT-4, 50 μM, 48 h) was 5%; with EKVX (50 μM) it was 16%; with NCI-H23 (Non-Small Cell lung Cancer NCI-H23, 50 μM, 48 h), 6%; with NCI-H322M (50 μM) it was 12%; with KM12 (Colon Cancer KM12, 50 μM, 48 h), 20%; in the assay with SF-539 (CNS Cancer SF-539, 50 μM, 48 h), 13%. The “Growth Inhibition (%)” value in the assay with SNB-75 (CNS Cancer SNB-75, 50 μM, 48 h) amounted to 15%; in the assay with MALME-3M (50 μM) it was 32%; with UACC-257 (Melanoma UACC-257, 50 μM, 48 h) it was 14%; with UACC-62 (Melanoma UACC-62, 50 μM, 48 h), 30%; in the assay with NCI/ADR-RES (50 μM), 0%; in the assay with SK-OV-3 (Ovarian Cancer SK-OV-3, 50 μM, 48 h) it was 13%. Also, the “Growth Inhibition (%)” value was 0% with ACHN (50 μM); 17% with RXF 393 (Renal Cancer RXF 393, 50 μM, 48 h); 22% with MDA-MB-468 (Breast Cancer MDA-MB-468, 50 μM, 48 h). Further, the γH2AX formation result with γH2AX is listed as “dramatically increased”. Moreover, the “expression level of caspase 3” value in the assay with caspase 3 is recorded as “significantly reduced”. Further, the “level of cleavage of caspase 3” value in the assay with caspase 3 is reported as “increased”.
`CC1(C)OB(c2ccc(Cn3cc(F)c(=O)[nH]c3=O)cc2)OC1(C)C` [Compound 1a, 5-Fluoro-1-(4-(4,4,5,5-tetramethyl-1,3,2-dioxaborolan-2-yl)benzyl)pyrimidine-2,4(1H,3H)-dione]: the inhibition at 50 µM worked out at 45% with MOLT-4 (Homo sapiens, Leukemia MOLT-4, 48 h); 28% in the assay on EKVX (Homo sapiens); 32% with NCI-H23 (Homo sapiens, Non-Small Cell lung Cancer NCI-H23, 48 h); 14% with NCI-H322M (Homo sapiens); 74% in the assay with KM12 (Homo sapiens, Colon Cancer KM12, 48 h); 39% in the assay on SF-539 (Homo sapiens, CNS Cancer SF-539, 48 h). The inhibition at 50 µM turned out to be 62% in the assay on SNB-75 (Homo sapiens, CNS Cancer SNB-75, 48 h); 55% in the assay on MALME-3M (Homo sapiens); 33% with UACC-257 (Homo sapiens, Melanoma UACC-257, 48 h); 71% with UACC-62 (Homo sapiens, Melanoma UACC-62, 48 h); 6% with NCI/ADR-RES (Homo sapiens); 31% in the assay with SK-OV-3 (Homo sapiens, Ovarian Cancer SK-OV-3, 48 h). The inhibition at 50 µM in the assay with ACHN (Homo sapiens) came to 8%; with RXF 393 (Homo sapiens, Renal Cancer RXF 393, 48 h) it was 40%; with MDA-MB-468 (Homo sapiens, Breast Cancer MDA-MB-468, 48 h) it was 87%. The γH2AX formation entry in the assay with γH2AX is reported as “dramatically increased”. Further, the “expression level of caspase 3” value with caspase 3 is on record as “significantly reduced”. The “level of cleavage of caspase 3” value with caspase 3 is recorded as “increased”.

By inhibition is commonly meant how much of the control response was suppressed. A lower inhibition goes with a response near the control.

Source of the values: patent US20220041627A1, “PRODRUGS OF ANTI-CANCER AND ANTI-AUTOIMMUNE DISEASES THERAPEUTIC AGENTS, AND METHODS OF MAKING AND USE THEREOF” (UNIVERSITY OF MARYLAND, BALTIMORE, priority 2018, published 2022).
